Source: patent publication US12139461B1, “Piperidine compounds as PDE5 inhibitors” (KING SAUD UNIVERSITY, priority 2024, dated 2024)

Columns and labels:
[1] = biological target: Phosphodiesterase type 5 (PDE5) (Homo sapiens (Human), UniProt O76074); test: In vitro phosphodiesterase type 5 (PDE5) inhibition assay; format: biochemical; conditions: purified PDE5, IMAP FP assay
male rats = test: Copulatory behavior testing; format: in vivo, rat; conditions: 5 mg/kg oral; for copulatory efficiency (CE): CE=(IF/MF)x100; for mean intromission interval (MII): MII=EL/IF
Experimental: Sexually mature Wistar albino male and female rats weighing 150-180 g (10-14 weeks old) were used in our study. Males were trained for sexual behavior with estrus females, that is, two hours a day for one week, before the investigations. Females were brought into the estrous phase artificially by sequential injection of estradiol benzoate (Sigma) (25 μg/animal) and progesterone (Sigma) (250 μg/animal) subcutaneously, 48 and 4 hours before pairing, respectively. Only those sexually active animals were used subsequently in the study. Sexually active rats were isolated and housed in separate cages at room temperature (24±2° C.) on a reversed day/night cycle with a relative humidity of 50-55% during the experimental period. All sexual studies were performed in a calm laboratory condition under subdued light. For the toxicity study, adult Wistar albino male rats were used separately. Rats were obtained from the Experimental Animal Care Center, College of Pharmacy, King Saud University. Animals were fed with a standard pellet diet and provided water ad libitum. All experiments were performed per the protocols and recommendations of the NIH Guide for the Care and Use of Laboratory Animals and the legal requirements of King Saud University for investigations on humans and animals.
Based on a preliminary study to select the appropriate dose for the promising synthesized compounds, the compounds were administered separately to sexually experienced male rats by oral gavage at 5 mg/kg in a 0.5% sodium carboxymethyl cellulose (CMC) vehicle. […] All solutions were freshly prepared at a concentration that allowed the administration of 1 ml/kg.
After drug treatment, rats were housed separately in transparent cages for acclimation. Thirty minutes after drug treatment, a sexually receptive female rat with estrous phase was introduced in each cage for 30 min and the following parameters of the copulatory behavior were recorded: namely mount latency (ML; time from introduction of the female until the first mount with or without penile insertion, it measures the degree of arousal or sexual interest or libido of the male), mount frequency (MF; the number of mounts until ejaculation, it is a measure of the degree of the male's sexual interest or libido), intromission latency (IL; time from introduction of the female until the first intromission, it measures the degree of sexual excitement and erection), intromission frequency (IF; number of vaginal penetrations until ejaculation, it measures the degree of erection), ejaculation latency (EL; time from the first intromission until ejaculation, it determines the excellent organization of copulation in rats) and post-ejaculatory interval (PEI; time interval between an ejaculation and the following first mount, it measures the refractory period that comes after ejaculation). Latency values represent the number of seconds that elapses from the introduction of the female into the copulatory arena until the male executes the first mount, intromission or ejaculation. Frequency values represent the number of ejaculations, mounts or intromission recorded during the copulatory test.
Depending on these parameters, the following can be calculated: Copulatory efficiency (CE)=(IF/MF)×100 and mean intromission interval (MII)=EL/IF as previously described (Aydogan F. et al., J Ethnopharmacol 257 (2020) 112868; Besong E B. et al., Biochem Res Int 2018 (2018) 2869727, the contents of each of which are hereby incorporated by reference in their entirety). Experiments were repeated blindly three times using new fresh (unused) animals in each experiment.

male diabetic rats = test: Copulatory behavior testing in diabetic animals; format: in vivo, rat; conditions: 5 mg/kg/day for 14 days; for ejaculation latency (EL) / intromission frequency (IF) / intromission latency (IL) / mount frequency (MF) / mount latency (ML) / post-ejaculatory interval (PEI) / copulatory efficiency (CE) / mean intromission interval (MII): male diabetic rats; for copulatory efficiency (CE): CE=(IF/MF)x100; for mean intromission interval (MII): MII=EL/IF; for sexual function in diabetic rats: versus diabetic control rats
Experimental: Nearly 90% of the population suffering from diabetic conditions report disturbances in sexual function, encompassing a decrease in libido, impotence and infertility (Kamenov Z A, Exp Clin Endocrinol Diabetes 123 (2015) 141-158). Diabetic was induced in experimental animals by intraperitoneal administration of streptozotocin in separate groups of male animals. Diabetes was induced by a single intraperitoneal injection of freshly prepared 65 mg/kg streptozotocin in […] citrate buffer, pH 4.4 (Mendez J D and Ramos H G, Arch Med Res 25 (1994) 367-375). All rats receiving streptozotocin were given a 10% sucrose solution in the first 48 h after injection to prevent hypoglycemia. After 72 h of streptozotocin administration, rats with fasting serum glucose more than 350 mg/dL were considered as diabetic. Glibenclamide was given by oral gavage once a day (10 mg/kg/day) to diabetic animals to avoid mortality throughout the investigation (Abdel-Aziz A A-M. et al., Eur J Med Chem 46 (2011) 4324-4329). The male rats were trained for sexual behavior study before induction of diabetes and treatment, as mentioned above. Diabetic rats were given a daily oral dose of 5 mg/kg of compounds C9, C14 and C21 for 14 consecutive days. The sexual behavior of the animals was assessed on day 15 of the treatment. The copulatory behavior testing was performed, and CE and MII were calculated.

[2] = system: sexually experienced male rats; test: Penile erection index (noncontact erection test); format: in vivo, rat; conditions: for ED50: Rattus norvegicus, linear regression of proportion of responding rats, read-out: effective dose ED50 (dose required to give 50% responding rats); for erectile response: oral treatment
Experimental: The penile erection index is an established means of determining the erection promoting properties of a substance. Determination of penile erection in a noncontact position was calculated as reported previously (Haripriya V M. et al., Andrologia 51 (2019) e13180; Sharma V. et al., J Ethnopharmacol 143 (2012) 201-206, the contents of each of which are hereby incorporated by reference in their entirety). The sexually experienced male rats of all groups were given the treatment 30 minutes before experimentation. The number of animals for each dose was ten rats in each experiment. […] The results shown are the average of three separate experiments. Control animals were given 0.5% CMC as a vehicle.
The rats of each group were placed in the observation cages (five at a time) divided into half by two sheets of metal mesh, preventing contact but allowing auditory, visual and olfactory stimuli. After a 5-min adaptation period, the test was started by placing an estrus female on the other side of the cage. Penile erection was recorded when the rats bent down to lick their erect penis. Homosexual mounting was also counted when a male rat mounted another male rat performing pelvic thrusts with or without a penile erection. […] The effective dose ED50 (the dose required to give 50% responding rats) for examined compounds was calculated using linear regression analysis by GraphPad software with the proportion of responding rats as the input data and expressed as μmol/kg.

[3] = Evaluation of LD50 (acute oral toxicity); format: in vivo; conditions: rat, in vivo, po; single intragastric administration, rats, 24 h
From the text: (§1) Healthy rats were divided into groups of 10 rats and maintained as described above. Rats had free access to water and food, except for a short fasting period before the treatment with the single oral dose of compounds C9, C14 and C21 or the solvent. The compounds were formulated with 1% CMC. An approximate LD50 was initially determined in a pilot study by a so called ‘staircase method’ using a small number of animals (2 each dose) and increasing doses of tested compounds. Three doses were then chosen for the determination of oral median lethal dose (LDso) (500, 1000 and 2000 mg/kg) and given to three groups of rats (10 in each group). Another group of rats (6 rats) was given equal amounts of 1% CMC orally and served as a control group. […] After 24 hours, the number of dead rats was counted in each group. The percentage of animals that had died at each dose level was transformed to probits, and then LD50 was determined by the method of Miller and Tainter, 1944 as described previously (Randhawa M A, J Ayub Med Coll Abbottabad 21 (2009) 184-185, the contents of which are hereby incorporated by reference in their entirety).

rats = test: Evaluation of LD50 (acute oral toxicity); format: in vivo; conditions: single oral dose 500-2000 mg/kg
From the text: as §1

SMILES | IC50 [1] [nM] | efficacy in improving copulatory behavior (male rats) | ejaculation latency (EL) (male rats) [s] | intromission frequency (IF) (male rats) | intromission latency (IL) (male rats) [s] | mount frequency (MF) (male rats) | mount latency (ML) (male rats) [s] | post-ejaculatory interval (PEI) (male rats) [s] | copulatory efficiency (CE) (male rats) [%] | mean intromission interval (MII) (male rats) | ejaculation latency (EL) (male diabetic rats) [s] | intromission frequency (IF) (male diabetic rats) | intromission latency (IL) (male diabetic rats) [s] | mount frequency (MF) (male diabetic rats) | mount latency (ML) (male diabetic rats) [s] | post-ejaculatory interval (PEI) (male diabetic rats) [s] | copulatory efficiency (CE) (male diabetic rats) [%] | mean intromission interval (MII) (male diabetic rats) | sexual function in diabetic rats (male diabetic rats) | erectile response ([2]; 1.25-5 mg/kg) | further results
NS(=O)(=O)c1ccc(CNC(=O)CN2CCC(Cc3ccccc3)CC2)cc1 [Compound C14, 2-(4-Benzylpiperidin-1-yl)-N-(4-sulfamoylbenzyl)acetamide] | 39.4 | more pronounced | 425.1 | 20.6 | 122.6 | 27.3 | 54.6 | 277.1 | 76.2 | 20.8 | 208.3 | 3.8 | 327.6 | 10.6 | 158.0 | 505.6 | 35.6 | 55.7 | restored | statistically elevated | ED50 ([2]; oral): 10.1 µmol/kg; animal response (proportion of responding rats) with dose ([2]; oral, 1.25-5 mg/kg): higher response; penile erection index (PEI) ([2]; oral, dose 1.25 mg/kg): 26.6 ± 3.4; penile erection index (PEI) ([2]; oral, dose 2.5 mg/kg): 46.6 ± 3.3; penile erection index (PEI) ([2]; oral, dose 5 mg/kg): 90.0 ± 11.5; LD50 at 24 h [3]: > 2000 mg/kg; toxic symptoms after oral dosing (rats): gradually became drowsy and less responsive
O=S(=O)(c1ccc(Cl)cc1Cl)N1CCC(Cc2ccccc2)CC1 [Compound C21, 4-Benzyl-1-((2,4-dichlorophenyl)sulfonyl)piperidine] | 41.2 | more pronounced | 395.0 | 16.8 | 178.6 | 26.6 | 72.5 | 298.0 | 63.6 | 23.74 | 248.5 | 4.3 | 326.0 | 10.6 | 154.6 | 510.5 | 41.1 | 59.1 | restored | statistically elevated | ED50 ([2]; oral): 14.3 µmol/kg; penile erection index (PEI) ([2]; oral, dose 1.25 mg/kg): 26.5 ± 6.6; penile erection index (PEI) ([2]; oral, dose 2.5 mg/kg): 46.6 ± 3.3; penile erection index (PEI) ([2]; oral, dose 5 mg/kg): 63.3 ± 3.4; LD50 at 24 h [3]: > 2000 mg/kg; toxic symptoms after oral dosing (rats): gradually became drowsy and less responsive
O=S(=O)(c1ccc(Cl)cc1Cl)N1CCC(c2ccccc2)CC1 [Compound C9, 1-((2,4-Dichlorophenyl)sulfonyl)-4-phenylpiperidine] | 47.9 | more pronounced | 368.3 | 12.8 | 177.6 | 23.6 | 74.6 | 355.6 | 55.2 | 29.0 | 223.3 | 4.3 | 305.1 | 10.6 | 137.1 | 552.8 | 40.9 | 53.1 | restored | statistically elevated | penile erection index (PEI) ([2]; oral, dose 1.25 mg/kg): 23.3 ± 3.3; penile erection index (PEI) ([2]; oral, dose 2.5 mg/kg): 53.3 ± 8.8; penile erection index (PEI) ([2]; oral, dose 5 mg/kg): 60.0 ± 5.7; LD50 at 24 h [3]: > 2000 mg/kg; toxic symptoms after oral dosing (rats): gradually became drowsy and less responsive
